Where two headings read alike, the source gives them in different places.
Columns and labels:
[1] = test system: DA-depleted DAT-KO (DDD) mice; experiment: Locomotor activity (forward locomotion, distance traveled) in DDD mice; settings: for effect in tests of forward locomotion or akinesia and rigidity: NE- and 5-HT-related drugs, data not shown
[2] = test system: DA-depleted DAT-KO (DDD) mice; experiment: Grasping test of muscular rigidity in DDD mice; settings: as E1; 1 h after second dose
[3] = test system: DA-depleted DAT-KO (DDD) mice; experiment: Catalepsy test (horizontal bar) in DDD mice; settings: for Catalepsy (sec) 2 h: as E4, 1 h after second dose
[4] = test system: DA-depleted DAT-KO (DDD) mice; experiment: Akinesia test (forelimb steps in 30 s) in DDD mice; settings: as E7; 1 h after second dose
[5] = test system: DA-depleted DAT-KO (DDD) mice; settings: mouse, in vivo
[6] = test system: DD mice; settings: [76], cited from earlier work
[7] = target: TA1 receptor (Rattus norvegicus, UniProt Q923Y9); settings: reported in [42]; cited from earlier work
Sequence of TA1 receptor (Q923Y9 whole entry): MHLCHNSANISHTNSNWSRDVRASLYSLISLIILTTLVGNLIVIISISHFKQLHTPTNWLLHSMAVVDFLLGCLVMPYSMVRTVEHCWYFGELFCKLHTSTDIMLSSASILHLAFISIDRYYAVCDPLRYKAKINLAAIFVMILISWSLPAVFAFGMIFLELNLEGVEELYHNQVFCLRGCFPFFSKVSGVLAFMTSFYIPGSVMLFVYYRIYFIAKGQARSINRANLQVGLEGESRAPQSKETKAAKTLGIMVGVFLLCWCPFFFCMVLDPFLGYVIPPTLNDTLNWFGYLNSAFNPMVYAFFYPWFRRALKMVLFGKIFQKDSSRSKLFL

[8] = test system: DAT-KO mice; experiment: In vivo microdialysis of striatal extracellular DA
Experimental: (§1) Neurochemical assessments. Striatal tissue contents of DA and frontal cortical tissue levels of NE were assessed using HPLC-EC (high performance liquid chromatography with electrochemical detection) as described. In vivo microdialysis measurements of striatal extracellular DA levels in freely moving mice were performed at least 24 h after implantation of a microdialysis probe as described previously. Dialysate samples were assayed for DA using HPLC-EC.

[9] = test system: DA-depleted DAT-KO (DDD) mice; experiment: Ptosis score in DDD mice; settings: cumulative dosing, scale 0-4, n=4
[10] = test system: 6-OH-DA-lesioned rats; settings: 6-OH-DA-lesioned rats [85]; cited from earlier work
[11] = test system: haloperidol-treated rats; settings: haloperidol-treated rats [84]; cited from earlier work
[12] = test system: MPTP-treated monkeys; settings: MPTP-treated monkeys [64]; cited from earlier work
[13] = test system: WT mice; experiment: Neurotoxic regimen of (±)-MDMA; settings: (±)-MDMA 4 injections of 20 mg/kg IP, every 2 h; WT mice n=7
[14] = test system: DAT-KO mice; experiment: Neurotoxic regimen of (±)-MDMA, striatal tissue DA and 5-HT 7 d later; settings: (±)-MDMA 4 injections of 20 mg/kg IP, every 2 h, DAT-KO mice n=7
[15] = test system: DAT-KO mice; experiment: Striatal tissue DA by HPLC-EC after αMT; format: in vivo; settings: αMT 250 mg/kg IP
Experimental: as §1

[16] = test system: WT mice; experiment: Striatal tissue DA by HPLC-EC after αMT; format: in vivo; settings: αMT 250 mg/kg IP; 4 h
Experimental: as §1

[17] = test system: DAT-KO mice; experiment: Frontal cortex tissue NE by HPLC-EC after αMT; format: in vivo; settings: αMT 250 mg/kg IP; 8 h after treatment
Experimental: as §1

[18] = test system: WT mice; experiment: Frontal cortex tissue NE by HPLC-EC after αMT; format: in vivo; settings: αMT 250 mg/kg IP; 8 h after treatment
Experimental: as §1

[19] = test system: WT mice; experiment: Locomotor activity after αMT; settings: αMT 250 mg/kg IP
[20] = test system: DAT-KO mice; settings: 100 mg/kg IP once every 3 d for 40 wk; cited from earlier work
[21] = test system: DAT-KO mice; experiment: Behavioral tests after αMT (akinesia, catalepsy, grasping, bracing, tremor, ptosis, righting reflex); settings: αMT 250 mg/kg IP
[22] = test system: DAT-KO mice; experiment: Locomotor activity after αMT
[23] = test system: WT mice; experiment: In vivo microdialysis of striatal extracellular DA; settings: αMT 250 mg/kg IP; freely moving WT mice
Experimental: as §1

[24] = DDD mice, drug 1 h after αMT 250 mg/kg IP

CN1CCc2cccc3c2[C@H]1Cc1ccc(O)c(O)c1-3 [apomorphine]
forward locomotion (distance traveled) [1, 24]: induced locomotion

CCN[C@@H](C)Cc1cccc(C(F)(F)F)c1 [(+)-Fenfluramine]
Grasping test (sec) 2 h [2]: 9 ± 4 s
Catalepsy (sec) 2 h [3]: 113 ± 23 s
Akinesia (steps) 2 h [4]: 21 ± 3 steps

CNCCC(Oc1ccc(C(F)(F)F)cc1)c1ccccc1 (stereo not shown) [fluoxetine]
effect in tests of forward locomotion or akinesia and rigidity ([1]; DDD mice): none were effective

CC(C)(N)Cc1ccccc1 [phentermine]
effects on akinesia and rigidity after pretreatment with D1 and D2 DA antagonists [5]: did not prevent the effects
manifestations of akinesia and rigidity [5]: effective in reducing manifestations of akinesia and rigidity

CCNC(C)Cc1cccc(C(F)(F)F)c1 (racemic) [(±)-Fenfluramine]
Grasping test (sec) 2 h [2]: 8 ± 4 s
Catalepsy (sec) 2 h [3]: 138 ± 28 s
Akinesia (steps) 2 h [4]: 32 ± 6 steps

CC(N)Cc1ccc2c(c1)OCO2.Cl (racemic) [(±)-MDA, (±)-3,4-methylenedioxyamphetamine HCl]
manifestations of akinesia and rigidity [5]: effective in reducing manifestations of akinesia and rigidity

C[C@H](N)Cc1ccccc1 [d-amphetamine]
locomotor activation in DD mice ([6]; 5 mg/kg, first treatment): induced potent locomotor activation
locomotor activation in DD mice ([6]; second treatment 2 h later, same dose): failed to induce locomotion
effects on akinesia and rigidity after pretreatment with D1 and D2 DA antagonists [5]: did not prevent the effects
manifestations of akinesia and rigidity [5]: effective in reducing manifestations of akinesia and rigidity

Cn1c(=O)c2c(ncn2C)n(C)c1=O [caffeine]
forward locomotion (distance traveled) ([1]; mouse, in vivo): not effective

COc1ccc2[nH]cc(CCN(C)C)c2c1 [5-methoxy-N,N-dimethyltryptamine]
effect in tests of forward locomotion or akinesia and rigidity ([1]; DDD mice): none were effective

CN1Cc2c(N)cccc2C(c2ccccc2)C1 (stereo not shown) [nomifensine]
activity at TA1 receptor [7]: can also potently activate TA1 receptor
forward locomotion (distance traveled) [1, 24]: not effective
reversing catalepsy ([3]; DDD mice, cumulative treatment with 10 and 30 mg/kg IP): not effective
manifestations of akinesia and rigidity [5]: significantly reduced akinesia and rigidity

CNC(C)Cc1ccc2c(c1)OCO2.Cl (single isomer, unassigned; (+)) [(+)-MDMA, (+)-3,4-methylenedioxymethamphetamine HCl]
forward locomotion (distance traveled) ([1]; mouse, in vivo): able to induce significant forward locomotion
potentiation of locomotor-stimulating effect of subthreshold L-DOPA/carbidopa ([1]; mouse, in vivo): potent synergistic effect
forward locomotion ([1]; mouse, in vivo, HCl): induced significant forward locomotion
striatal extracellular DA in DDD mice ([8]; (+)-MDMA 100 mg/kg IP after αMT, in vivo microdialysis): did not produce any detectable increase in striatal extracellular DA

CCNC(C)Cc1cccc(C(F)(F)F)c1 (single isomer, unassigned; (-)) [(−)-Fenfluramine]
Grasping test (sec) 2 h [2]: 4 ± 1 s
Catalepsy (sec) 2 h [3]: 104 ± 31 s
Akinesia (steps) 2 h [4]: 28 ± 5 steps

C[C@]12N[C@H](Cc3ccccc31)c1ccccc12 [MK-801]
forward locomotion (distance traveled) [1, 24]: not effective
forward locomotion (distance traveled) ([1]; DDD mice, drug 1 h after αMT 250 mg/kg IP, listed as ME-801): did not result in a significant increase in forward locomotion
manifestations of akinesia and rigidity [5]: able to reduce rigidity

N[C@H](C(=O)O)[C@H](O)c1ccc(O)c(O)c1 [L-DOPS, L-threo-3,4-dihydroxyphenylserine]
effect in tests of forward locomotion or akinesia and rigidity ([1]; DDD mice): none were effective
ptosis score ([9]; 1 h after 100 mg/kg IP): 2.50±0.28
ptosis score ([9]; 1 h after 200 mg/kg IP): 0
ptosis score ([9]; 1 h after 400 mg/kg IP): 0

CCCN1C[C@H](CSC)C[C@@H]2c3cccc4[nH]cc(c34)C[C@H]21 [pergolide]
forward locomotion (distance traveled) [1, 24]: induced locomotion

COc1ccc2[nH]cc(C3=CCNCC3)c2c1 [RU24969]
effect in tests of forward locomotion or akinesia and rigidity ([1]; DDD mice): none were effective

CN[C@@H](C)Cc1ccccc1 [d-methamphetamine]
manifestations of akinesia and rigidity [5]: effective in reducing manifestations of akinesia and rigidity

CC(NC(C)(C)C)C(=O)c1cccc(Cl)c1 (stereo not shown) [Bupropion]
Grasping test (sec) 2 h [2]: 16 ± 3 s
Catalepsy (sec) 2 h [3]: 123 ± 28 s
Akinesia (steps) 2 h [4]: 29 ± 11 steps

Cc1ccc2[nH]cc(CCN(C)C)c2c1 [5-methyl-N,N-dimethyltryptamine]
effect in tests of forward locomotion or akinesia and rigidity ([1]; DDD mice): none were effective

CNC(C)Cc1ccc2c(c1)OCO2 (stereo not shown) [MDMA, 3,4-methylenedioxymethamphetamine]
antiakinetic effects [10]: antiakinetic effects
anticataleptic effect [11]: potent anticataleptic effect
antiakinetic effects [12]: antiakinetic effects

N[C@@H](Cc1ccc(O)c(O)c1)C(=O)O [L-DOPA]
forward locomotion (distance traveled) [1, 24]: effectively restored locomotion

CNCCCN1c2ccccc2CCc2ccccc21 [desipramine]
effect in tests of forward locomotion or akinesia and rigidity ([1]; DDD mice): none were effective

C[C@@H](N)Cc1ccccc1 [L-Amphetamine]
Grasping test (sec) 2 h [2]: 9 ± 3 s
Catalepsy (sec) 2 h [3]: 99 ± 36 s
Akinesia (steps) 2 h [4]: 29 ± 5 steps

C#CCN(C)[C@H](C)Cc1ccccc1 [deprenyl]
potentiation of locomotor-stimulating effect of subthreshold L-DOPA/carbidopa ([1]; DDD mice, L-DOPA/carbidopa 10/10 mg/kg IP 15 min after drug, distance traveled for 2 h): failed to potentiate

NCCc1ccccc1 [beta-phenylethylamine]
forward locomotion (distance traveled) [1, 24]: did not induce forward locomotion
stereotypic reactions, such as headweaving and sniffing ([1]; DDD mice, high doses, with or without inhibition of MAO): did promote weak stereotypic reactions

CNC(C)Cc1ccc2c(c1)OCO2.Cl (racemic) [(±)-MDMA, (±)-3,4-methylenedioxymethamphetamine HCl]
lethality [13]: lethality of all treated WT mice
striatal tissue 5-HT [14]: 0.40±0.02 ng/mg tissue
striatal tissue DA [14]: 0.58±0.04 ng/mg tissue
manifestations of akinesia and rigidity [5]: effective in reducing manifestations of akinesia and rigidity

Clc1cccc(Cl)c1N=C1NCCN1 [clonidine]
effect in tests of forward locomotion or akinesia and rigidity ([1]; DDD mice): none were effective

CC(N)(Cc1ccc(O)cc1)C(=O)O (stereo not drawn) [αMT, α-methyl-p-tyrosine]
duration of the striatal DA depletion [15]: up to 16 h
striatal DA remaining after depletion ([15]; 15 min): 5 % of control levels in DAT-KO mice
striatal DA remaining after depletion ([15]; DAT-KO mice, expressed against WT control): less than 0.2 % of WT control levels
depletion of striatal tissue DA [16]: 60%
NE depletion in frontal cortex [17]: about 60%
NE depletion in frontal cortex [18]: about 60%
total distance traveled for 210 min after drug administration [19]: 505±98 cm/210 min
consequences of chronic treatment [20]: showed no negative consequences
akinesia, catalepsy, grasping, bracing, tremor and ptosis tests [21]: induced profound alterations
righting reflex [21]: did not affect the righting reflex
time to restoration of locomotor activity ([22]; after αMT 250 mg/kg IP): 16 to 24 h
total distance traveled for 210 min after drug administration ([22]; αMT 250 mg/kg IP): 448±75 cm/210 min
effect on extracellular DA levels in striatum ([8]; αMT 250 mg/kg IP, freely moving DAT-KO mice): essentially eliminated extracellular DA levels
effect on extracellular DA levels in striatum [23]: only a partial decrease

CC(N)Cc1ccc(Cl)cc1 (stereo not shown) [4-chloro-amphetamine]
manifestations of akinesia and rigidity [5]: effective in reducing manifestations of akinesia and rigidity

Reference: US8877802B2 (priority 2005, dated 2014)
